Assay results: paper PMC10799935, “Discovery of a peripheral 5HT2A antagonist as a clinical candidate for metabolic dysfunction-associated steatohepatitis” (Nature Communications, 2024)

Legend:
5HT2B (h) = molecular target: T1, 5HT2B (h) (Homo sapiens, UniProt P41595); assay: 5HT subtype antagonism assay (Eurofins Cerep): 5HT2B; assay type: cell-based
T1 construct: host or cells: CHO cells
Experimental: (§1) The derivatives were evaluated at a concentration of 1 μM for their antagonist activity on the 5HT2A receptor (Tables 1–3)[33],[34]. Human 5HT2A stably transfected HEK293 cells (a type of cell derived from kidney embryos)[20] were seeded in a 96-well plate (Costar; 3603) at a density of 9 × 10^4 in 100 μL of minimum essential medium (Welgene; LM007-86) containing 10% dialyzed fetal bovine serum (Gibco; 30067–334) and 1% penicillin/streptomycin (Gibco; 15140-122) and kept in a 37 °C incubator for 24 h. The cells were stained with 100 μL of cytosolic calcium dye using the FLIPR calcium 6 assay solution (Molecular devices, #R8190) supplemented with 2.5 mM probenecid (Sigma; P8761) and incubated for 1 h at 37 °C. After 1 h, the designated amount of the compound was treated in each well and incubated for another 1 h at 37 °C. Then, the cells were loaded in a Flexstation 3 microplate reader (Molecular Devices; FlexStaion) and 50 μL of 5 μM 5HT (serotonin hydrochloride, Sigma; H9523) was injected from a source plate (Nunc 96-well polystyrene conical bottom MicroWell Plate, Thermo; 249662) and the fluorescence intensity (Ex/Em-485nm/ 525 nm) was measured. […]
(§2) Antagonism assay Source Stimulus Incubation Measured Detection Method […]

5HT6 (h) = molecular target: T2, 5HT6 (h) (Homo sapiens, UniProt P50406); assay: 5HT subtype antagonism assay (Eurofins Cerep): 5HT6; assay type: cell-based; conditions: concentration not given
T2 construct: host or cells: CHO cells

5HT7 (h) = molecular target: T3, 5HT7 (h) (Homo sapiens, UniProt P34969); assay: 5HT subtype antagonism assay (Eurofins Cerep): 5HT7; assay type: cell-based
T3 construct: host or cells: CHO cells
Experimental: as §1, §2

[1] = Pharmacokinetic study in rats; assay type: in vivo, Sprague-Dawley rats; conditions: rat
Experimental: (§3) The experimental protocol for this study was approved by the IACUC of KPC Co., Ltd. (No. KPC IACUC-P203046; Beagle dogs) or QuBEST BIO (No.QBIACUC-A20131). All relevant ethical guidelines were followed. Beagle male dogs (11 ~ 20 months old) were purchased from ORIENT BIO Inc. and were housed in the barrier animal facility of KPC Co., Ltd. under a regular light-dark cycle (12-hour light/12-hour dark) at 21.1–23.4°C with 55.3–72.2% humidity. Food (standard irradiated pelleted commercial laboratory diet, Cargill Agri Purina, 300 g/dog.day) and water were provided ad libitum. All study dogs were returned to the laboratory colony after the study without any euthanasia. Sprague-Dawley male rats (7 weeks old) were purchased from SAMTAKOBIOKOREA, Inc. and were housed in the barrier animal facility of Nonclinical Research Center, QuBEST BIO under a regular light-dark cycle (12-hour light/12-hour dark) at 19.7–22.7°C with 54.5–65.6% humidity. Food (standard irradiated pelleted commercial laboratory diet, Purina Rodent Chow, 38057) and water were provided ad libitum. All study rats were euthanized by CO2 gas upon study completion.
(§4) Blood samples were collected at the scheduled times up to 24 h post-dose (IV: 0.083, 0.25, 0.5, 1, 2, 4, 8, 12 and 24 h post-dose, PO: 0.25, 0.5, 1, 2, 4, 8, 12 and 24 h post-dose). Determination of compound 11c in plasma was performed by UHPLC-MS/MS. Pharmacokinetic parameters were calculated by noncompartmental analysis using Phoenix® WinNonlin® (Ver. 8.3‘, Certara).

[2] = Pharmacokinetic study in dogs; assay type: in vivo, Beagle dogs; conditions: dog
Experimental: as §3, §4

HFD-fed C57BL/6J mice = assay: DIO mice: blood profiling (serum cholesterol, triglyceride); assay type: in vivo, mouse; conditions: for Serum TG levels, Mean Diff. (Vehicle vs. treated) / Serum total cholesterol levels, Mean Diff. (Vehicle vs. treated) / Serum TG levels, group mean / Serum total cholesterol levels (CHO), group mean: DIO mice; for Serum TG levels, Mean Diff. (Vehicle vs. treated) / Serum total cholesterol levels, Mean Diff. (Vehicle vs. treated): Dunnett's multiple comparisons test; for Serum TG levels, group mean / Serum total cholesterol levels (CHO), group mean: PO
Experimental: Blood samples were obtained by cardiac puncture, and plasma was isolated. Blood profiling was performed by GC Pharma (Green Cross Corporation). Plasma TG and cholesterol were detected with an in vitro enzymatic colorimetric assay (CHOL2 and TRIGL; Roche, Germany) using a Cobas 8000 clinical analyzer with a c702 module (Roche).

[3] = Phase 1 clinical trial, SAD (single ascending dose) study; conditions: human, in vivo
CYP1A2 = CYP1A2 (Homo sapiens, UniProt P05177); assay: in vitro
5HT2A = 5HT2A (Homo sapiens, UniProt P28223); assay: 5HT subtype antagonism assay (selectivity panel): 5HT2A; conditions: concentration not given
[4] = male, Sprague-Dawley, plasma, 5 mg/kg, IV (5 mpk)
[5] = male, beagle, plasma, 5 mg/kg, IV (5 mpk)
[6] = male, beagle, plasma, 5 mg/kg, PO (5 mpk)

T3 sequence (P34969 whole entry): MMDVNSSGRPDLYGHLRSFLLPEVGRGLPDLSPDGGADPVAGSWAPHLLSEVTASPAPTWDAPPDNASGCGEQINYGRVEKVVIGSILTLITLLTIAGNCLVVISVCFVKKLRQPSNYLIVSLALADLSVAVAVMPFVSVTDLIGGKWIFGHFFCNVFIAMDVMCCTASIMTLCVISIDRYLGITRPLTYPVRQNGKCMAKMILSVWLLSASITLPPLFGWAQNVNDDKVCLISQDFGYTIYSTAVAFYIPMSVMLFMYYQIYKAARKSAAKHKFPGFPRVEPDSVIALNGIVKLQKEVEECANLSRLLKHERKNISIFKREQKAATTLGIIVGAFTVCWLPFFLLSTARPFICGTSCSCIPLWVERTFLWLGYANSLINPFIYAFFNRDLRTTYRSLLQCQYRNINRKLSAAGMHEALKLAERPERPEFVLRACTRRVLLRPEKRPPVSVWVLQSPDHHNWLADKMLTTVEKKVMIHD
T1 sequence (P41595 whole entry): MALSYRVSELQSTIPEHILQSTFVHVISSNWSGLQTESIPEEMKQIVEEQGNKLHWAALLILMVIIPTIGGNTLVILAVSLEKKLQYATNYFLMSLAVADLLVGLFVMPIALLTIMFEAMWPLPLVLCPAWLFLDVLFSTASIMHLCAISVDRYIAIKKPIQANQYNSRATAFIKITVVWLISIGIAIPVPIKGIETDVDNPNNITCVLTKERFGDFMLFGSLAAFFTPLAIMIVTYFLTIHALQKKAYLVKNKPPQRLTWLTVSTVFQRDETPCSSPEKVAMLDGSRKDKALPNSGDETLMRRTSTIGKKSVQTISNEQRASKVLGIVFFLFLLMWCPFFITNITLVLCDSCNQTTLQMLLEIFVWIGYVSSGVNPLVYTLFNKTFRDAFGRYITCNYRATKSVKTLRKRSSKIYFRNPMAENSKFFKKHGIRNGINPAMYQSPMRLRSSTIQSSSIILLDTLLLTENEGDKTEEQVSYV
Chain of CYP1A2 (P05177 whole entry): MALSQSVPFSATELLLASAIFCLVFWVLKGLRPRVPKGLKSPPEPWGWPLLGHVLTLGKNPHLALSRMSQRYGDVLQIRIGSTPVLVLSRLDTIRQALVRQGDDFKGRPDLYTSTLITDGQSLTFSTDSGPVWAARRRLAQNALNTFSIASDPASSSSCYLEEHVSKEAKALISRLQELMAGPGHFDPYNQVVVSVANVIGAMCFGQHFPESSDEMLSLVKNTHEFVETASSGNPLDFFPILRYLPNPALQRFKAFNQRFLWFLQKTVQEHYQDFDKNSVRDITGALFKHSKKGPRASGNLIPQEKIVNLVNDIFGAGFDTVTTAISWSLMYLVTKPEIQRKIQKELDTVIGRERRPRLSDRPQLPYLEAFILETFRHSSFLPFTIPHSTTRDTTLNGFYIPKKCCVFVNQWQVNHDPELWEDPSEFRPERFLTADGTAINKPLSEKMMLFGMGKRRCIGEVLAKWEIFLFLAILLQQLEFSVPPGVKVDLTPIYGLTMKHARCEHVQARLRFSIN
Chain of 5HT2A (P28223 whole entry): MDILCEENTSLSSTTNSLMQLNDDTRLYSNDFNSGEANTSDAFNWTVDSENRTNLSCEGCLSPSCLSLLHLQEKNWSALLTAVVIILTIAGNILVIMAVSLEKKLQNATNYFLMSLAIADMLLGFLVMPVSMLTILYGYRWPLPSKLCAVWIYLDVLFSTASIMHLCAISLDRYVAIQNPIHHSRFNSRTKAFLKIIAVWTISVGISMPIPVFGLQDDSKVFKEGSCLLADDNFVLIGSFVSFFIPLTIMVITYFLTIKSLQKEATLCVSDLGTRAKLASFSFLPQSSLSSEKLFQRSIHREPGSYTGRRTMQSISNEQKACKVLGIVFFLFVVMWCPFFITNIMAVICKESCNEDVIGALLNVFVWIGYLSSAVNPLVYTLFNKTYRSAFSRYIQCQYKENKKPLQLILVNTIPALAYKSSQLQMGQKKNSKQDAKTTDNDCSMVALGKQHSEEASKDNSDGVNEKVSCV
T2 sequence (P50406 whole entry): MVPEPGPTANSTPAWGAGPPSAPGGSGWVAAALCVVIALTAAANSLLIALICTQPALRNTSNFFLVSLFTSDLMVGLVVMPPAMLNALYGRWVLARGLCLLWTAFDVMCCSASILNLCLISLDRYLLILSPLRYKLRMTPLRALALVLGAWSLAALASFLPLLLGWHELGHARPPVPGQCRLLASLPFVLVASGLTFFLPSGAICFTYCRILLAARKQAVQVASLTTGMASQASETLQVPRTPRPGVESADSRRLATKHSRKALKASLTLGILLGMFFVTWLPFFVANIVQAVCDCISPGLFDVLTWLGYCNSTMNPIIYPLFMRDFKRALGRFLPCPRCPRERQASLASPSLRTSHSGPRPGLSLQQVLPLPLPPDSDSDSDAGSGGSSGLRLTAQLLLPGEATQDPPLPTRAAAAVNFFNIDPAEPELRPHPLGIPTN

Cc1nc2n(c(=O)c1CCN1CCC(=C3c4ccc(Cl)cc4CCc4cccnc43)CC1)CCCC2O (stereo not shown) [Compound 11c]
Selectivity 2B: % inhibition (5HT2B (h); concentration not given): 94% | IC50 (5HT2B (h); read-out: Selectivity 2B: IC50): 290 nM | Selectivity 6: % inhibition (5HT6 (h)): 7% | Selectivity 7: % inhibition (5HT7 (h); concentration not given): 91% | IC50 (5HT7 (h); read-out: Selectivity 7: IC50): 100 nM | AUC [1, 4]: 1550 ng·h/mL | clearance [1, 4]: 47 mL/min/kg | AUC ([1]; male, Sprague-Dawley, plasma, 5 mg/kg, PO (5 mpk)): 980 ng·h/mL | bioavailability ([1]; male, Sprague-Dawley, plasma, 5 mg/kg, PO (5 mpk), read-out: F (%)): 63% | AUC ([1]; male, Sprague-Dawley, plasma, 10 mg/kg, PO (10 mpk)): 2880 ng·h/mL | bioavailability ([1]; male, Sprague-Dawley, plasma, 10 mg/kg, PO (10 mpk), read-out: F (%)): 92.5% | half-life ([1]; male, Sprague-Dawley, plasma, iv, 5 mg/kg, IV (5 mpk)): 4.14 h | half-life ([1]; male, Sprague-Dawley, plasma, po, 5 mg/kg, PO (5 mpk)): 2.5 h | half-life ([1]; male, Sprague-Dawley, plasma, po, 10 mg/kg, PO (10 mpk)): 2.7 h | bioavailability ([1]; male, Sprague-Dawley, plasma, po, rats (summary statement), read-out: oral bioavailability): > 60% | V ([1]; IV (5 mpk)): 8.86 L/kg | T1/2 ([1]; IV (5 mpk), 5 mg/kg): 4.4 h | V ([2]; IV (5 mpk)): 4.36 L/kg | bioavailability ([2]; male, beagle, plasma, po, 5 mpk, dogs (summary statement), read-out: oral bioavailability): > 60% | AUC [2, 5]: 16800 ng·h/mL | clearance [2, 5]: 7 mL/min/kg | half-life [2, 5]: 8.6 h | AUC [2, 6]: 19100 ng·h/mL | half-life [2, 6]: 10.2 h | bioavailability ([2]; male, beagle, plasma, 5 mg/kg, PO (5 mpk), read-out: F (%)): 73% | Serum TG levels, Mean Diff. (Vehicle vs. treated) (HFD-fed C57BL/6J mice; 5mpk): 32.28 mg/dL | Serum total cholesterol levels, Mean Diff. (Vehicle vs. treated) (HFD-fed C57BL/6J mice; 5mpk): -18.72 mg/dL | Serum TG levels, Mean Diff. (Vehicle vs. treated) (HFD-fed C57BL/6J mice; 10mpk): 36.37 mg/dL | Serum total cholesterol levels, Mean Diff. (Vehicle vs. treated) (HFD-fed C57BL/6J mice; 10mpk): 0.9883 mg/dL | Serum TG levels, group mean (HFD-fed C57BL/6J mice; 5mpk): 71.94 mg/dL | Serum total cholesterol levels (CHO), group mean (HFD-fed C57BL/6J mice; 5mpk, 5 mg/kg): 220.6 mg/dL | Serum TG levels, group mean (HFD-fed C57BL/6J mice; 10mpk): 67.86 mg/dL | Serum total cholesterol levels (CHO), group mean (HFD-fed C57BL/6J mice; 10mpk, 10 mg/kg): 200.9 mg/dL | serum triglyceride levels (HFD-fed C57BL/6J mice; high-fat diet-induced NAFLD mice): significant reduction | half-life [3]: > 10 h | inhibition at 10 µM (CYP1A2): < 1% | Selectivity 2 A: % inhibition (5HT2A): 102%
